Tests used:
leukotriene B4 receptors = leukotriene B4 receptors (Cavia porcellus, UniProt H0VYV8); assay: biochemical; type: binding, guinea-pig; conditions: Table XIX; guinea-pig spleen membranes, tritium-labelled LTB4; read-out: IC50 Binding (Cheng)
[1] = system: guinea-pig pulmonary parenchyma; assay: L. Parenchyma: guinea-pig pulmonary parenchyma contraction antagonism induced by LTB4 (Sirois); type: cell-based; conditions: Cavia porcellus; Table XIX; guinea-pig pulmonary parenchyma contraction induced by LTB4; read-out: IC50 L. Parenchyma
Protocol: Further, compounds of this invention are shown to be leukotriene B4 antagonists in the technique of guinea-pig pulmonary parenchyma contraction antagonism induced by LTB4 described by P. Sirois et al., Pharmacology, 31, 225-236 (1985). In this technique, products are active at concentrations of between about 1 to about 10,000 nM.

leukotriene B4 receptors, sequence (H0VYV8 1-348): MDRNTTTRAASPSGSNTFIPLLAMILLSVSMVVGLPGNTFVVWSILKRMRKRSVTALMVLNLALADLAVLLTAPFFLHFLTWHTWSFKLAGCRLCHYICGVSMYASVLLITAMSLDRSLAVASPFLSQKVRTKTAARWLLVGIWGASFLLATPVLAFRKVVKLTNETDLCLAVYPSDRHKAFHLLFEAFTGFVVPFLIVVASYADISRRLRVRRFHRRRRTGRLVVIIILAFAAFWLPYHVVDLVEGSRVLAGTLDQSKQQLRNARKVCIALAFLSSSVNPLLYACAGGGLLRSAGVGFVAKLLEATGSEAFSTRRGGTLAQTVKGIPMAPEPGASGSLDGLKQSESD

SMILES	IC50 (leukotriene B4 receptors) [nM]	IC50 [1] [nM]
O=C(O)CCCCCOc1cc(-c2cccc(F)c2)cc(-c2ccccc2)n1 [6-{[4-(3-fluorophenyl)-6-phenyl-2-pyridyl]oxy}hexanoic acid]	3	200
COc1cccc(-c2cc(OCCCCCC(=O)O)nc(-c3ccccc3)c2)c1 [6-{[4-(3-methoxyphenyl)-6-phenyl-2-pyridyl]oxy}hexanoic acid]	8	200
O=C(O)CCCCCOc1cc(-c2ccc(Cl)cc2)cc(-c2ccccc2)n1 [6-{[4-(4-chlorophenyl)-6-phenyl-2-pyridyl]oxy}hexanoic acid]	10	100
O=C(O)CCCCCOc1cc(-c2ccc(F)cc2)cc(-c2ccccc2F)n1 [6-{[4-(4-fluorophenyl)-6-(2-fluorophenyl)-2-pyridyl]oxy}hexanoic acid]	10	1000
O=C(O)CCCCCOc1cc(-c2ccc(F)cc2)cc(-c2ccccc2)n1 [6-{[4-(4-fluorophenyl)-6-phenyl-2-pyridyl]oxy}hexanoic acid]	3	800
COc1ccc(-c2cc(OCCCCCC(=O)O)nc(-c3ccccc3)c2)cc1 [6-{[4-(4-methoxyphenyl)-6-phenyl-2-pyridyl]oxy}hexanoic acid]	15	1100
Cc1ccc(-c2cc(OCCCCCC(=O)O)nc(-c3ccccc3)c2)cc1 [6-{[4-(4-methylphenyl)-6-phenyl-2-pyridyl]oxy}hexanoic acid]	15	100
CSc1ccc(-c2cc(OCCCCCC(=O)O)nc(-c3ccccc3)c2)cc1 [6-{[4-(4-methylthiophenyl)-6-phenyl-2-pyridyl]oxy}hexanoic acid]	10	3000
O=C(O)CCCCCOc1cc(-c2ccccc2)cc(-c2cccs2)n1 [6-{[4-phenyl-6-(2-thienyl)-2-pyridyl]oxy}hexanoic acid]	50	300
O=C(O)CCCCCOc1cc(-c2ccccc2)cc(-c2ccsc2)n1 [6-{[4-phenyl-6-(3-thienyl)-2-pyridyl]oxy}hexanoic acid]	10	1000

Continued, values first:

IC50 (leukotriene B4 receptors) [nM]	IC50 [1] [nM]	SMILES
3	60	O=C(O)CCCCCOc1cc(-c2ccccc2)cc(-c2ccccc2F)n1 [6-{[6-(2-fluorophenyl)-4-phenyl-2-pyridyl]oxy}hexanoic acid]
4	150	O=C(O)CCCCCOc1cc(-c2ccccc2)cc(-c2cccc(F)c2)n1 [6-{[6-(3-fluorophenyl)-4-phenyl-2-pyridyl]oxy}hexanoic acid]
1200	> 10000	COc1ccc(-c2cc(OCCCCCC(=O)O)nc(-c3ccc(Cl)cc3)c2)cc1 [6-{[6-(4-chlorophenyl)-4-(4-methoxyphenyl)-2-pyridyl]oxy}hexanoic acid]
30	1700	O=C(O)CCCCCOc1cc(-c2ccccc2)cc(-c2ccc(F)cc2)n1 [6-{[6-(4-fluorophenyl)-4-phenyl-2-pyridyl]oxy}hexanoic acid]
25	1300	O=C(O)CCCCCCOc1cc(-c2ccccc2)cc(-c2ccccc2)n1 [7-[(4,6-diphenyl-2-pyridyl)oxy]heptanoic acid]
40	> 10000	COC(=O)CCCCCOc1cc(-c2ccccc2)cc(-c2ccccc2)n1 [methyl 6-[(4,6-diphenyl-2-pyridyl)oxy]hexanoate]

— patent publication US5366982A (priority 1990, dated 1994)
